These results are taken from paper PMC12706778, “Humanization of Drug Metabolism in the Plasmodium berghei Mouse Model for Antimalarial Drug Discovery” (ACS Infectious Diseases, 2025).

In general, Tmax refers to the time at which the peak concentration occurs.

Data set [1] is described as follows: Oral pharmacokinetics in whole blood of WT mice. It counts as in vivo. The note with it: female, mouse; for Tmax: WT, po; for blood plasma ratio: WT mice, blood and plasma samples from same animals at identical timepoints, read-out: B/P (blood-to-plasma ratio). The method, then:
(§1) Three female mice were used in each pharmacokinetic experiment. Dose levels and schedules were as described in the text. All compounds were administered as fine suspensions in a vehicle of 1% methylcellulose and 0.5% Tween80 in water at a dose volume of 5 mL/kg. Serial blood samples (10 μL) were taken from the tail vein at the time points shown, diluted into 9 volumes of Milli-Q water, and stored at −20 °C prior to bioanalysis. PK parameters were determined by noncompartmental analysis using the Phoenix WinNonlin version 8.3.1.5014 (Certara).
(§2) Microsomal incubation samples were analyzed on an Acquity UPLC system coupled to a Xevo TQS-Micro, operated using MassLynx software version 4.2 (Waters, Wilmslow, UK). […] The mass spectrometer was operated with electrospray ionization in positive mode, with a capillary voltage of 0.8 kV, a desolvation temperature of 500 °C (in vitro samples) or 600 °C (PK samples), a desolvation gas flow at 1000 L/h, a cone gas flow at 150 L/h, and a source temperature at 150 °C. Multiple reaction monitoring transitions, cone voltages, and collision energies were optimized for each compound using QuanOptimise software.
(§3) On the day of sample analysis, calibration standards (CSs) and quality controls (QCs) were prepared from separate compound aliquots. Compounds were dissolved in DMSO and spiked into diluted blank blood as a control matrix, prior to extraction with three volumes of acetonitrile containing the internal standard (donepezil at 5 ng/mL), in parallel with PK samples. Concentration of the drug in samples was determined by interpolation onto CS values using TargetLynx (Waters). Acceptance criteria of the bioanalytical method included a CS accuracy of ±20% of nominal (theoretical) concentration across the range of interest. […] QCs at low-, medium-, and high- concentration levels were injected throughout the analytical run, with an acceptance criterion of 66% of injected samples being within ±20% of nominal concentrations. […] Sample carryover was determined in a blank injection immediately following the injection of the top CS. Carryover was deemed accepted when the test compound response in the blank was <1% of that in the top calibration sample.

Data set [2] can be described thus: Oral pharmacokinetics in whole blood of 8HUM mice. Format: in vivo, mouse. To be noted: for Tmax / blood plasma ratio: female, mouse; for Tmax: 8HUM, po; for blood plasma ratio: blood and plasma samples from same animals at identical timepoints, read-out: B/P (blood-to-plasma ratio); for AUCinf higher in 8HUM than in WT mice: oral dose, 8HUM versus WT. The method, then: as §1, §2, §3

The nature of data set [3]: Intrinsic clearance with human hepatic microsomes. It counts as in vitro ADME. To be noted: for metabolism with hepatic microsomes (in words): stated for hepatic microsomes from human, 8HUM and WT mice together. How it is done:
(§4) Microsomes from 8HUM were prepared as described previously. Compounds were added at 0.5 μM (metabolic stability) or 5 μM (metabolite profiling) to microsomes in buffer (0.5 mg/mL protein in 50 mM potassium phosphate, pH 7.4), and reactions were initiated with the addition of excess NADPH (final concentration 0.8 mg/mL). Aliquots (50 μL) were taken immediately and at 3, 6, 9, 15, and 30 min, mixed with two volumes of acetonitrile containing internal standard (donepezil, 50 ng/mL), and kept on ice. After all samples were collected, 250 μL of 20% acetonitrile was added to each sample and samples were then centrifuged for 10 min at 3000g at ambient temperature. LC–MS/MS analysis was carried out immediately.
as §2
Raw LC–MS/MS data were exported to XLfit (IDBS, Woking, UK) for calculation of the exponential decay rate constant (k) from the ratio of the peak area of the test compound to the internal standard at each time point. Intrinsic clearance (CLint) was calculated by multiplying k by the incubation volume and […]. […] Lower and upper limits of quantitation were 0.011 and 0.1 mL/min/mg, respectively. Values were transferred to RStudio (Posit, Boston, MA, USA) for visualization using the ggplot2 package.

Data set [4] in a line: Intrinsic clearance with WT mouse hepatic microsomes. Format: in vitro ADME. To be noted: WT mouse microsomes versus human or 8HUM. The method, then:
as §4
(§5) Microsomal incubation samples were analyzed on an Acquity UPLC system coupled to a Xevo TQS-Micro, operated using MassLynx software version 4.2 (Waters, Wilmslow, UK). […]
(§6) Raw LC–MS/MS data were exported to XLfit (IDBS, Woking, UK) for calculation of the exponential decay rate constant (k) from the ratio of the peak area of the test compound to the internal standard at each time point. Intrinsic clearance (CLint) was calculated by multiplying k by the incubation volume and […]. […] Lower and upper limits of quantitation were 0.011 and 0.1 mL/min/mg, respectively. […]

Data set [5] can be described thus: Intrinsic clearance with 8HUM mouse hepatic microsomes. It counts as in vitro ADME. How it is done: as §4, §5, §6
Data set [6] relates to Plasmodium berghei. In words: Short course P. berghei infection efficacy in 8HUM mice. It counts as in vivo, Plasmodium berghei ANKA in 8HUM mice. The note with it: 8HUM infected with 0.3 × 10^6 P. berghei infected erythrocytes; single dose 7 mg/kg 24 h after infection; untreated approximately 10% after 5 days; n = 3. The method, then:
Donor mice (CD-1) were intraperitoneally administered a solution containing cryopreserved erythrocytes infected with P. berghei ANKA (200 μL at approximately 4% parasitemia). […] Piperaquine (Sigma, C7874) was administered at 7 mg/kg in aqueous vehicle containing 1% (w/v) methylcellulose and 0.5% (w/v) Tween 80. Peripheral blood samples were collected daily, and parasitemia was determined as described.

The mark [7] stands for this setting: chloroquine and primaquine 5 mg/kg, quinine 20 mg/kg.

For `C=C[C@H]1C[N@@]2CC[C@H]1C[C@H]2[C@H](O)c1ccnc2ccc(OC)cc12` [Quinine, quinine], the values for the Tmax in data set [1] (whole blood) and in data set [2] (whole blood) were 0.3 ± 0.1 h and 10.7 ± 11.7 h, respectively.

For `CCc1nc(N)nc(N)c1-c1ccc(Cl)cc1` [Pyrimethamine, pyrimethamine], in data set [3], the “metabolism with hepatic microsomes (in words)” value is on record as “Very little metabolism”.

Regarding `COc1cc(NC(C)CCCN)c2ncccc2c1` (centres unmarked) [Primaquine, primaquine], the “stability with WT microsomes compared with human or 8HUM microsomes” value in data set [4] is on record as “less stable”. Moreover, the Tmax came out at 0.6 ± 0.2 h in data set [1] (in vivo) and 0.8 ± 0.2 h in data set [2] (in vivo). For the same molecule, the blood plasma ratio in data set [1] (in vivo) worked out at 1.05 ± 0.19; in data set [2] (in vivo, 8HUM mice) it was 1.01 ± 0.03. Moreover, the C max in data set [2] (8HUM mice, whole blood, PO, chloroquine and primaquine 5 mg/kg, quinine 20 mg/kg, n = 3) was 534 ± 37 ng/mL. Moreover, the “AUCinf higher in 8HUM than in WT mice” value in data set [2] (setting [7]) is on record as 22 fold.

Regarding `O=C1C(O)=C([C@H]2CC[C@H](c3ccc(Cl)cc3)CC2)C(=O)c2ccccc21` [Atovaquone, atovaquone], in data set [3], the “metabolism with hepatic microsomes (in words)” value is “Very little metabolism”.

`C[C@H]1[C@H](OC(=O)CCC(=O)O)O[C@@H]2O[C@@]3(C)CC[C@H]4[C@H](C)CC[C@@H]1[C@@]24OO3` [Artesunate, artesunate]: the “metabolism by human liver microsomes (in words)” value in data set [3] is reported as “rapidly metabolized”.

Consider `C[C@H]1c2cccc(O)c2C(=O)C2=C(O)[C@]3(O)C(=O)C(C(N)=O)=C(O)[C@@H](N(C)C)[C@@H]3[C@@H](O)[C@@H]21` [Doxycycline, doxycycline], for which the “metabolism with hepatic microsomes (in words)” value in data set [3] was “Very little metabolism”.

Regarding `CCN(CC)CCCC(C)Nc1ccnc2cc(Cl)ccc12` (centres unmarked) [Chloroquine, chloroquine], the “stability with WT microsomes compared with human or 8HUM microsomes” value in data set [4] is on record as “less stable”. For the same molecule, the time of peak concentration (Tmax) is 2 h in data set [1] (in vivo) and 3 ± 2.6 h in data set [2] (in vivo). Moreover, the blood plasma ratio is 3.03 ± 0.38 in data set [1] (in vivo) and 3.88 ± 1.64 in data set [2] (in vivo, 8HUM mice). The “AUCinf higher in 8HUM than in WT mice” value in data set [2] (setting [7]) is 2.8 fold.

As for `CCN(CC)Cc1cc(Nc2ccnc3cc(Cl)ccc23)ccc1O` [Amodiaquine, amodiaquine], the “metabolism by human liver microsomes (in words)” value in data set [3] is reported as “rapidly metabolized”. The “stability in 8HUM microsomes compared with human” value in data set [5] is “much more stable”.

As to `CO[C@H]1O[C@@H]2O[C@@]3(C)CC[C@H]4[C@H](C)CC[C@@H]([C@H]1C)[C@@]24OO3` [Artemether, artemether], the “metabolism by human liver microsomes (in words)” value in data set [3] is recorded as “rapidly metabolized”.

Regarding `OC(c1cc(C(F)(F)F)nc2c(C(F)(F)F)cccc12)C1CCCCN1` (centres unmarked) [Mefloquine, mefloquine], in data set [3], the “metabolism with hepatic microsomes (in words)” value is listed as “Very little metabolism”. Besides, the results for the Tmax in data set [1] (whole blood) and in data set [2] (whole blood) were 4.7 ± 1.2 h and 7.3 ± 1.2 h, respectively. Moreover, the blood plasma ratio came to 1.44 ± 0.07 in data set [1] (whole blood and plasma, oral); 1.41 ± 0.16 in data set [2] (whole blood and plasma, oral, 8HUM mice).

For `[H]/N=C(\N/C(=N/[H])Nc1ccc(Cl)cc1)NC(C)C` [Proguanil, proguanil], in data set [3], the “metabolism with hepatic microsomes (in words)” value was “Very little metabolism”.

As to `Clc1ccc2c(N3CCN(CCCN4CCN(c5ccnc6cc(Cl)ccc56)CC4)CC3)ccnc2c1` [piperaquine], the parasitemia after treatment entry in data set [6] is reported as “almost undetectable levels”.
